ChEMBL document CHEMBL5579843, “Multimechanism biological profiling of tetrahydro-β-carboline analogues as selective HDAC6 inhibitors for the treatment of Alzheimer's disease” (Eur J Med Chem, 2024)
Activity calls are given as the source filed them. No cut-off for these calls is given here.

Columns and labels:
[1] = Antioxidant activity assessed as DPPH scavenging activity incubated for 0.5 hrs by absorbance based assay; format: functional
PC-12 [2] = experiment: Neuroprotective activity against H2O2-induced oxidative damage in rat PC-12 cells assessed as reduction in ROS level at 10 uM pretreated for 4 hrs followed by H2O2 stimulation and measured after 24 hrs by DCFH-DA staining based fluorescence microscopic analysis; format: functional, cell-based; conditions: time 28.0 hrs
PC-12 [3] = experiment: Neuroprotective activity against H2O2-induced oxidative damage in rat PC-12 cells assessed as inhibition of apoptosis by measuring increase in Bcl-2 protein expression pretreated for 4 hrs followed by H2O2 stimulation and measured after 24 hrs by Western blot analysis; format: functional, cell-based; conditions: dose 1-10 µM, time 28.0 hrs
PC-12 [4] = experiment: Neuroprotective activity against H2O2-induced oxidative damage in rat PC-12 cells assessed as SOD activity at 10 uM pretreated for 4 hrs followed by H2O2 stimulation and measured after 24 hrs by WST-8 assay; format: functional; conditions: time 28 hrs
Danio rerio [5] = organism: Danio rerio; experiment: (§1) Effect on anxiety-like behavior in scopolamine induced zebrafish alzheimer disease model assessed as exploratory behavior in upper part of aquarium by measuring increase in total swimming distance at 1 mg/L pretreated with scopolamine for 30 mins followed by compound addition for 3 mins by novel tank diving test; format: functional, organism-based
PC-12 [6] = experiment: Upregulation of GAP-43 protein expression in rat PC-12 cells measured after 24 hrs by Western blot analysis; format: functional, cell-based; conditions: dose 1-10 µM
PC-12 [7] = experiment: Neuroprotective activity against H2O2-induced oxidative damage in rat PC-12 cells assessed as inhibition of apoptosis by measuring early apoptotic cells at 10 uM pretreated for 4 hrs followed by H2O2 stimulation and measured after 24 hrs by Annexin V-FITC/PI staining based flow cytometry analysis (reference value: 2.32%); format: functional; design: scale not given: the % may be the effect or the level left; conditions: time 28 hrs
PC-12 [8] = experiment: Neuroprotective activity against H2O2-induced oxidative damage in rat PC-12 cells assessed as increase in cell survival pretreated for 4 hrs followed by 800 uM H2O2 stimulation and measured after 24 hrs by MTT assay; format: functional, cell-based; conditions: dose 1-10 µM, time 28.0 hrs
PC-12 [9] = experiment: Induction of neurite outgrowth in rat PC-12 cells measured after 48 hrs by light microscopic analysis; format: functional, cell-based; conditions: dose 1-10 µM
PC-12 [10] = experiment: Neuroprotective activity against 6-OHDA-induced oxidative damage in rat PC-12 cells assessed as increase in cell survival at 1 to 10 uM pretreated for 4 hrs followed by 500 uM 6-OHDA stimulation and measured after 24 hrs by MTT assay; format: functional, cell-based; conditions: dose 1-10 µM, time 28.0 hrs
Danio rerio [11] = organism: Danio rerio; experiment: as §1, with “in” for “in total”, “speed” for “distance”; format: functional, organism-based
Danio rerio [12] = organism: Danio rerio; experiment: Cognitive improvement ability in scopolamine induced zebrafish alzheimer disease model assessed as improvement in spatial memory by measuring increase in activity at enriched chamber region at 1 mg/L pretreated with scopolamine for 30 mins followed by compound addition for 3 mins by T-maze test; format: functional, organism-based
PC-12 [13] = experiment: Induction of neurite outgrowth in rat PC-12 cells assessed as increase in number of neurites per cells at 1 to 10 uM measured after 48 hrs by light microscopic analysis; format: functional, cell-based; conditions: dose 1-10 µM
PC-12 [14] = experiment: Neuroprotective activity against H2O2-induced oxidative damage in rat PC-12 cells assessed as increase in Nrf2 protein expression at 10 uM pretreated for 4 hrs followed by H2O2 stimulation and measured after 24 hrs by Western blot analysis; format: functional, cell-based; conditions: time 28.0 hrs

## O=C(NO)c1ccc(CN2CCc3c(n(CC4CC4)c4ccc(F)cc34)C2)cc1
[1]
  IC50: 22.5 µM
PC-12 [2]
  Activity: Active
PC-12 [3]
  Activity: Dose-Dependent Effect
PC-12 [4]
  Activity: 17.16 U/mg
Danio rerio [5]
  Activity: Active
PC-12 [6]
  Activity: Dose-Dependent Effect
PC-12 [7]
  Activity: 4.22%
PC-12 [8]
  Activity: Dose-Dependent Effect
PC-12 [9]
  Activity: Dose-Dependent Effect
PC-12 [10]
  Activity: Active
Danio rerio [11]
  Activity: Active
Danio rerio [12]
  Activity: Active
PC-12 [13]
  Activity: Active
PC-12 [14]
  Activity: Active
